ChEMBL document CHEMBL5120900, “Structure-Based Discovery of a Series of NSD2-PWWP1 Inhibitors” (J Med Chem, 2022)
Calls of active or inactive are those of the source. The rule behind the calls is not given here.

Columns and labels:
KMS-11 [1] = assay: Induction of apoptosis in human KMS-11 cells assessed as necrotic cells at 5 uM measured after 72 hrs by Annexin V FITC/PI staining based flow cytometry analysis (reference value: 0.88%); assay type: functional
MV4-11 [2] = assay: Induction of apoptosis in human MV4-11 cells assessed as late apoptotic cells at 10 uM measured after 72 hrs by Annexin V FITC/PI staining based flow cytometry analysis (reference value: 3.02%); assay type: functional
MM1.S = assay: Antiproliferative activity against human MM1.S cells assessed as inhibition of cell proliferation measured after 6 days by CCK8 assay; assay type: functional, cell-based; details: 144 h
MV4-11 [3] = assay: Cell cycle arrest in human MV4-11 cells assessed as increase in accumulation of G0/G1 phase at 5 to 10 uM measured after 24 hrs by PI staining based flow cytometric analysis; assay type: functional; details: dose 5-10 µM
[4] = molecular target: T1, Histone-lysine N-methyltransferase NSD2 (Homo sapiens) (UniProt O96028); assay: Binding affinity to His6/Sumo-tagged NSD2 PWWP1 (unknown origin) (208 to 368 residues) expressed in Escherichia coli BL21 (DE3) assessed as increase in melting temperature by thermal shift assay; details: DDE = dose-dependent effect
T1 sequence (whole entry): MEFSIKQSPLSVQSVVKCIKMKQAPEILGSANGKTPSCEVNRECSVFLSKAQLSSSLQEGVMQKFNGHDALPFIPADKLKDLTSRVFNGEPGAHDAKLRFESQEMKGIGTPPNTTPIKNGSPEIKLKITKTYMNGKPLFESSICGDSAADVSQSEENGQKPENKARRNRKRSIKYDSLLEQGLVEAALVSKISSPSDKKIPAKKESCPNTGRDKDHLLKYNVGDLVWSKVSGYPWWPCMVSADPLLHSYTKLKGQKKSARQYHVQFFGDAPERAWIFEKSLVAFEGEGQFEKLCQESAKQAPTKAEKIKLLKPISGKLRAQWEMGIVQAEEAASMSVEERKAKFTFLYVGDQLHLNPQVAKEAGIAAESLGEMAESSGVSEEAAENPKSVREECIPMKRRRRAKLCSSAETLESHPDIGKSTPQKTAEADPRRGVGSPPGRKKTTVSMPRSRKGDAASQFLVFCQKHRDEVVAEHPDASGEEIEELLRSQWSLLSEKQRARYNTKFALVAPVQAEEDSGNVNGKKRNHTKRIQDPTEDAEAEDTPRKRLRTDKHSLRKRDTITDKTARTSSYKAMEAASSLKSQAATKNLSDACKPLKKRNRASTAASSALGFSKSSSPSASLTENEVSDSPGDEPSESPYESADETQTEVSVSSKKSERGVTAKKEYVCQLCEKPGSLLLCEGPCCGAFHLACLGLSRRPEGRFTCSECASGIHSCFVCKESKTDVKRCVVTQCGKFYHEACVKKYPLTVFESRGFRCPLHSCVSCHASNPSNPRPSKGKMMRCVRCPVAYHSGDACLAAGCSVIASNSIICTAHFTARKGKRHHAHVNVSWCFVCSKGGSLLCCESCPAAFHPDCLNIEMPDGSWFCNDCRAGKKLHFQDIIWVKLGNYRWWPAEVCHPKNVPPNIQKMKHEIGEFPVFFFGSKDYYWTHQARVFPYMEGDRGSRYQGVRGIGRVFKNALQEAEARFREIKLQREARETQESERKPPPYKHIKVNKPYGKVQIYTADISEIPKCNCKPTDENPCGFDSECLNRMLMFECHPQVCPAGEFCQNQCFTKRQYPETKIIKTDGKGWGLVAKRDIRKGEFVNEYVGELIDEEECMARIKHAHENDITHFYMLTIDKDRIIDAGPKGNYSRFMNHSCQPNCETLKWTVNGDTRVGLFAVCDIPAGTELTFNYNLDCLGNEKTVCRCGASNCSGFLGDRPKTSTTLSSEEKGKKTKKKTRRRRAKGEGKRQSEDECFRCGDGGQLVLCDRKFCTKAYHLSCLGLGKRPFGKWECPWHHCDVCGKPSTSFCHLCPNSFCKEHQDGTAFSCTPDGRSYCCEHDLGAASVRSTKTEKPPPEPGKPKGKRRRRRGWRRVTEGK

MV4-11 [5] = assay: Induction of apoptosis in human MV4-11 cells assessed as necrotic cells at 10 uM measured after 72 hrs by Annexin V FITC/PI staining based flow cytometry analysis (reference value: […]); assay type: functional
KMS-11 [6] = assay: Induction of apoptosis in human KMS-11 cells assessed as viable cells at 5 uM measured after 72 hrs by Annexin V FITC/PI staining based flow cytometry analysis (reference value: 69.4%); assay type: functional; details: read-out: Activity
KMS-11 [7] = assay: Induction of apoptosis in human KMS-11 cells assessed as necrotic cells at 10 uM measured after 72 hrs by Annexin V FITC/PI staining based flow cytometry analysis (reference value: 0.88%); assay type: functional
[8] = molecular target: T1, Histone-lysine N-methyltransferase NSD2 (Homo sapiens); assay: Inhibition of NSD2 in human RS4-11 cells assessed as decrease in NCAM1 gene expression at 10 uM incubated for 72 hrs by RT-PCR analysis; assay type: cell-based
RS4-11 = assay: Antiproliferative activity against human RS4-11 cells assessed as inhibition of cell proliferation measured after 6 days by CCK8 assay; assay type: functional, cell-based; details: RS4-11, 144 h
[9] = molecular target: T1, Histone-lysine N-methyltransferase NSD2 (Homo sapiens); assay: Inhibition of NSD2 in human RS4-11 cells assessed as decrease in PAK1 gene expression at 10 uM incubated for 72 hrs by RT-PCR analysis; assay type: cell-based
[10] = molecular target: T1, Histone-lysine N-methyltransferase NSD2 (Homo sapiens); assay: Inhibition of NSD2 in human KMS-11 cells assessed as decrease in TGFA gene expression at 10 uM incubated for 72 hrs by RT-PCR analysis; assay type: cell-based
KMS-11 [11] = assay: Induction of apoptosis in human KMS-11 cells assessed as early apoptotic cells at 10 uM measured after 72 hrs by Annexin V FITC/PI staining based flow cytometry analysis (reference value: 16.5 %); assay type: functional
MV4-11 [12] = assay: Induction of apoptosis in human MV4-11 cells assessed as necrotic cells at 5 uM measured after 72 hrs by Annexin V FITC/PI staining based flow cytometry analysis (reference value: […]); assay type: functional
MV4-11 [13] = assay: Antiproliferative activity against human MV4-11 cells assessed as inhibition of cell proliferation measured after 6 days by CCK8 assay; assay type: functional, cell-based; details: MV4-11, 144 h

- IC50 (MM1.S): 11 µM
- Activity [4]: Dde
- inhibition [8]: Active
- IC50 (RS4-11): 6.3 µM
- inhibition [9]: Active
- inhibition [10]: Active
- IC50 (MV4-11 [13]): 2230 nM
Compound: Cc1cc(CN2CCC(N)CC2)cc(C)c1-c1ncn(C)c1-c1ccc(C#N)c2ccccc12
- Activity (KMS-11 [1]): 0.69%
- Activity (MV4-11 [2]): 19.8%
- Activity (MV4-11 [3]): Active
- Activity (MV4-11 [5]): 1.56%
- viability at 5 µM (KMS-11 [6]): 61.7%
- Activity (KMS-11 [7]): 1.86%
- Activity (KMS-11 [11]): 28.7%
- Activity (MV4-11 [12]): 0.4%
